Laboratory results published in patent US9765075B2, “Substituted bridged urea analogs as sirtuin modulators” (GLAXOSMITHKLINE LLC, priority 2013, dated 2017).

Molecular target: T1, SIRT1 (Homo sapiens, UniProt Q96EB6)
T1 sequence (Q96EB6 1-747): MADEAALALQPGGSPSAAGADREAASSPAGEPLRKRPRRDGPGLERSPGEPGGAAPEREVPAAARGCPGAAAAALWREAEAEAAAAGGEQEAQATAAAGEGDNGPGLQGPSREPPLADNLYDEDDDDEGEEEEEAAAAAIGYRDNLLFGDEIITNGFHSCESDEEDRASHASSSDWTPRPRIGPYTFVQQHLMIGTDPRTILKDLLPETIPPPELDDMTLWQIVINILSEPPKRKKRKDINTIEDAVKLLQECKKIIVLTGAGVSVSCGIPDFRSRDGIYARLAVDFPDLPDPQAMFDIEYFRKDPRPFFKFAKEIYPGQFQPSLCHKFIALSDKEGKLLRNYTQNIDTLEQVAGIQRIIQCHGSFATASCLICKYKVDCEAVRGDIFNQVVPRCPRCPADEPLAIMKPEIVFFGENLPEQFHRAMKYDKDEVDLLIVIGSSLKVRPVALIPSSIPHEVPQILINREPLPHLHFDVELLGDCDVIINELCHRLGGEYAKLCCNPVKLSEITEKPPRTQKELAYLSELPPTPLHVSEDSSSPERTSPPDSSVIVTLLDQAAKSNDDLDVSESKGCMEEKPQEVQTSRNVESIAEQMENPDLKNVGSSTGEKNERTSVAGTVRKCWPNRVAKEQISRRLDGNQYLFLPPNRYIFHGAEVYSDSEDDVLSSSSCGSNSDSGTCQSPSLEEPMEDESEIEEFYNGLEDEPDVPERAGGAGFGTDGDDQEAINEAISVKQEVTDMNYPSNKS
Experiment: Trp mass spectrometry assay (SIRT1 activation)
Type: biochemical
Details: Trp peptide substrate; for Tryp AVG EC1.5 (μM): concentration of test compound that results in 150% activation of SIRT1; for Emax: percent maximum fold activation of SIRT1, read-out: Tryp % Fold Act
Procedure, shortened: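 Activation is expressed as EC1.5, the concentration raising activity 50% above DMSO control, and as maximum percent of control. Mass-spec readout was OAADPR or deacetylated Trp peptide after a formic-acid-quenched 25-min, 25 °C reaction: 10 nM bacterially expressed His-SIRT1, 0.5 μM acetyl-p53-derived peptide, 120 μM NAD+, pH 7.5 HEPES with […].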

Row | Tryp AVG EC1.5 (μM) | Emax [%] | Structure (SMILES)
1 | B (EC1.5 1-25 μM) | ≥ 150 | O=C(Nc1ccccn1)N1c2nc(-c3ccc4c(c3)OC(F)(F)O4)ccc2N2CC[C@H]1C2 [Example 262]
2 | B (EC1.5 1-25 μM) | ≥ 150 | COc1ncc(-c2ccc3c(n2)N(C(=O)Nc2ccccn2)[C@H]2CCN3C2)c(OC)n1 [Example 263]
3 | A (EC1.5<1 μM) | ≥ 150 | CN(C)c1cccc(-c2ccc3c(n2)N(C(=O)Nc2cccc(-c4cnco4)c2)[C@@H]2CCCN3C2)c1 [Example 264]
4 | B (EC1.5 1-25 μM) | ≥ 150 | COc1cc(NC(=O)N2c3nc(-c4cccc(N(C)C)c4)ccc3N3CCC[C@@H]2C3)ncn1 [Example 265]
5 | B (EC1.5 1-25 μM) | ≥ 150 | CN(C)c1cccc(-c2ccc3c(n2)N(C(=O)Nc2cnccn2)[C@@H]2CCCN3C2)c1 [Example 266]
6 | B (EC1.5 1-25 μM) | ≥ 150 | O=C(Nc1cnccn1)N1c2nc(-c3cccc(N4CC[C@@H](F)C4)c3)ccc2N2CC[C@H]1C2 [Example 267]
7 | A (EC1.5<1 μM) | ≥ 150 | O=C(Nc1cnccn1)N1c2nc(-c3cccc(N4CC[C@H](F)C4)c3)ccc2N2CC[C@H]1C2 [Example 268]
8 | B (EC1.5 1-25 μM) | ≥ 150 | O=C(Nc1ccc(F)cn1)N1c2nc(-c3cccc(N4CC[C@@H](F)C4)c3)ccc2N2CC[C@H]1C2 [Example 269]
9 | B (EC1.5 1-25 μM) | ≥ 150 | O=C(Nc1ccc(F)cn1)N1c2nc(-c3cccc(N4CC[C@H](F)C4)c3)ccc2N2CC[C@H]1C2 [Example 270]
10 | A (EC1.5<1 μM) | ≥ 150 | O=C(Nc1cncc(F)c1)N1c2nc(-c3cccc(N4CCC(F)(F)C4)c3)ccc2N2CC[C@H]1C2 [Example 271]
11 | B (EC1.5 1-25 μM) | ≥ 150 | O=C(Nc1ccccn1)N1c2nc(-c3cccc(C(F)(F)F)c3)ccc2N2CCC[C@@H]1C2 [Example 272]
12 | A (EC1.5<1 μM) | ≥ 150 | O=C(Nc1cncc(F)c1)N1c2nc(-c3cccc(C(F)(F)F)c3)ccc2N2CCC[C@@H]1C2 [Example 273]
13 | A (EC1.5<1 μM) | ≥ 150 | COc1cc(NC(=O)N2c3nc(-c4cccc(C(F)(F)F)c4)ccc3N3CCC[C@@H]2C3)ncn1 [Example 274]
14 | A (EC1.5<1 μM) | ≥ 150 | O=C(Nc1cnccn1)N1c2nc(-c3cncc(Cl)c3)ccc2N2CC[C@H]1C2 [Example 275]
15 | A (EC1.5<1 μM) | ≥ 150 | O=C(Nc1ccncn1)N1c2nc(-c3cncc(C(F)(F)F)c3)ccc2N2CC[C@H]1C2 [Example 276]
16 | A (EC1.5<1 μM) | ≥ 150 | O=C(Nc1ccc(F)cn1)N1c2nc(-c3cncc(C(F)(F)F)c3)ccc2N2CC[C@H]1C2 [Example 277]
17 | A (EC1.5<1 μM) | ≥ 150 | O=C(Nc1cnccn1)N1c2nc(-c3cncc(C(F)(F)F)c3)ccc2N2CC[C@H]1C2 [Example 278]
18 | A (EC1.5<1 μM) | ≥ 150 | O=C(Nc1ccccn1)N1c2nc(-c3cccc(N4CC[C@@H](F)C4)c3)ccc2N2CC[C@H]1C2 [Example 279]
19 | A (EC1.5<1 μM) | ≥ 150 | O=C(Nc1ccccn1)N1c2nc(-c3cccc(N4CC[C@H](F)C4)c3)ccc2N2CC[C@H]1C2 [Example 280]
20 | A (EC1.5<1 μM) | ≥ 150 | COc1cc(NC(=O)N2c3nc(-c4cccc(N5CC[C@@H](F)C5)c4)ccc3N3CC[C@H]2C3)ncn1 [Example 281]
21 | A (EC1.5<1 μM) | ≥ 150 | O=C(Nc1cncc(F)c1)N1c2nc(-c3cccc(N4CC[C@@H](F)C4)c3)ccc2N2CC[C@H]1C2 [Example 282]

Row | Tryp AVG EC1.5 (μM) | Emax [%] | Structure (SMILES)
22 | A (EC1.5<1 μM) | ≥ 150 | O=C(Nc1cncc(F)c1)N1c2nc(-c3cccc(N4CC[C@H](F)C4)c3)ccc2N2CC[C@H]1C2 [Example 283]
23 | B (EC1.5 1-25 μM) | ≥ 150 | O=C(Nc1cnccn1)N1c2nc(-c3ccnc(F)c3)ccc2N2CC[C@H]1C2 [Example 284]
24 | A (EC1.5<1 μM) | ≥ 150 | O=C(Nc1ccccn1)N1c2nc(N3CCCC(C(F)(F)F)C3)ccc2N2CCC[C@H]1C2 (stereo partly drawn) [Example 286]
25 | B (EC1.5 1-25 μM) | ≥ 150 | Cc1cc(C)nc(NC(=O)N2c3nc(N4CCCC(C(F)(F)F)C4)ccc3N3CCC[C@H]2C3)c1 (stereo partly drawn) [Example 287]
26 | A (EC1.5<1 μM) | ≥ 150 | Cc1cncc(NC(=O)N2c3nc(N4CCCC(C(F)(F)F)C4)ccc3N3CCC[C@H]2C3)c1 (stereo partly drawn) [Example 289]
27 | A (EC1.5<1 μM) | ≥ 150 | O=C(Nc1cncc(F)c1)N1c2nc(N3CCCC(C(F)(F)F)C3)ccc2N2CCC[C@H]1C2 (stereo partly drawn) [Example 290]
28 | B (EC1.5 1-25 μM) | ≥ 150 | O=C(Nc1ccncc1F)N1c2nc(N3CCCC(C(F)(F)F)C3)ccc2N2CCC[C@H]1C2 (stereo partly drawn) [Example 291]
29 | A (EC1.5<1 μM) | ≥ 150 | O=C(Nc1ncccn1)N1c2nc(N3CCCC(C(F)(F)F)C3)ccc2N2CCC[C@H]1C2 (stereo partly drawn) [Example 292]
30 | A (EC1.5<1 μM) | ≥ 150 | O=C(Nc1cnccn1)N1c2nc(N3CCCC(C(F)(F)F)C3)ccc2N2CCC[C@H]1C2 (stereo partly drawn) [Example 293]
31 | A (EC1.5<1 μM) | ≥ 150 | O=C(Nc1nccs1)N1c2nc(N3CCCC(C(F)(F)F)C3)ccc2N2CCC[C@H]1C2 (stereo partly drawn) [Example 295]
32 | B (EC1.5 1-25 μM) | ≥ 150 | Cc1cnc(NC(=O)N2c3nc(N4CCCC(C(F)(F)F)C4)ccc3N3CCC[C@H]2C3)s1 (stereo partly drawn) [Example 296]
33 | B (EC1.5 1-25 μM) | ≥ 150 | Cc1csc(NC(=O)N2c3nc(N4CCCC(C(F)(F)F)C4)ccc3N3CCC[C@H]2C3)n1 (stereo partly drawn) [Example 297]
34 | B (EC1.5 1-25 μM) | ≥ 150 | Cc1nc(NC(=O)N2c3nc(N4CCCC(C(F)(F)F)C4)ccc3N3CCC[C@H]2C3)sc1C (stereo partly drawn) [Example 298]
35 | C (EC1.5>25 μM) | < 150 | O=C(Nc1ccccn1)N1c2nc(N3CCCC(C(F)(F)F)C3)ccc2N2CCC[C@@H]1C2 (stereo partly drawn) [Example 300]
36 | C (EC1.5>25 μM) | < 150 | Cc1cc(C)nc(NC(=O)N2c3nc(N4CCCC(C(F)(F)F)C4)ccc3N3CCC[C@@H]2C3)c1 (stereo partly drawn) [Example 301]
37 | B (EC1.5 1-25 μM) | ≥ 150 | Cc1cncc(NC(=O)N2c3nc(N4CCCC(C(F)(F)F)C4)ccc3N3CCC[C@@H]2C3)c1 (stereo partly drawn) [Example 303]
38 | B (EC1.5 1-25 μM) | ≥ 150 | O=C(Nc1cncc(F)c1)N1c2nc(N3CCCC(C(F)(F)F)C3)ccc2N2CCC[C@@H]1C2 (stereo partly drawn) [Example 304]
39 | B (EC1.5 1-25 μM) | ≥ 150 | O=C(Nc1ccncc1)N1c2nc(N3CCCC(C(F)(F)F)C3)ccc2N2CCC[C@@H]1C2 (stereo partly drawn) [Example 305]
40 | B (EC1.5 1-25 μM) | ≥ 150 | O=C(Nc1cnccn1)N1c2nc(N3CCCC(C(F)(F)F)C3)ccc2N2CCC[C@@H]1C2 (stereo partly drawn) [Example 307]
41 | B (EC1.5 1-25 μM) | ≥ 150 | COc1cncc(NC(=O)N2c3nc(N4CCCC(C(F)(F)F)C4)ccc3N3CCC[C@@H]2C3)c1 (stereo partly drawn) [Example 309]
42 | B (EC1.5 1-25 μM) | ≥ 150 | O=C(Nc1nccs1)N1c2nc(N3CCCC(C(F)(F)F)C3)ccc2N2CCC[C@@H]1C2 (stereo partly drawn) [Example 310]

Row | Structure (SMILES) | Tryp AVG EC1.5 (μM) | Emax [%]
43 | O=C(Nc1cccc(-c2cnco2)c1)N1c2nc(N3CCCC(C(F)(F)F)C3)ccc2N2CCC[C@H]1C2 (stereo partly drawn) [Example 285] | A (EC1.5<1 μM) | ≥ 150
44 | O=C(Nc1cccnc1)N1c2nc(N3CCCC(C(F)(F)F)C3)ccc2N2CCC[C@H]1C2 (stereo partly drawn) [Example 288] | A (EC1.5<1 μM) | ≥ 150
45 | O=C(Nc1ccncn1)N1c2nc(N3CCCC(C(F)(F)F)C3)ccc2N2CCC[C@H]1C2 (stereo partly drawn) [Example 294] | B (EC1.5 1-25 μM) | ≥ 150
46 | O=C(Nc1cccc(-c2cnco2)c1)N1c2nc(N3CCCC(C(F)(F)F)C3)ccc2N2CCC[C@@H]1C2 (stereo partly drawn) [Example 299] | A (EC1.5<1 μM) | ≥ 150
47 | O=C(Nc1cccnc1)N1c2nc(N3CCCC(C(F)(F)F)C3)ccc2N2CCC[C@@H]1C2 (stereo partly drawn) [Example 302] | B (EC1.5 1-25 μM) | ≥ 150
48 | O=C(Nc1ccncn1)N1c2nc(N3CCCC(C(F)(F)F)C3)ccc2N2CCC[C@@H]1C2 (stereo partly drawn) [Example 308] | C (EC1.5>25 μM) | ≥ 150
